Assay results published in patent US20230049952A1, “METHODS AND COMPOUNDS FOR RESTORING MUTANT P53 FUNCTION” (PMV Pharmaceuticals, Inc., priority 2020, published 2023).

Test system: p53 signaling pathway in MT373 tumors
Assay: MT373 syngeneic sarcoma model: mouse p53 signaling pathway profiling panel
Type: in vivo

Q: CCn1c(C#CCNc2ccccc2)cc2cc(CNC3CCN(C)CC3)ccc21 [Compound 1, 1-Anilino-3-{1-ethyl-5-[(1-methyl-4-piperidylamino)methyl]-1H-indol-2-yl}-2-propyne] was tested. Which “Hif1a fold increase or percent reduction vs vehicle control” value (75 mg/kg BIDx1, 72 h) did it give?
A: 1.19 fold or %

Q: And the “Il6 fold increase or percent reduction vs vehicle control” value (75 mg/kg BIDx1, 72 h)?
A: 65.67 fold or %

Q: And the “Jun fold increase or percent reduction vs vehicle control” value (75 mg/kg BIDx1, 72 h)?
A: 25.77 fold or %

Q: What about the “Kras fold increase or percent reduction vs vehicle control” value (75 mg/kg BIDx1, 72 h) of the same compound?
A: 1.09 fold or %

Q: And the “Lig4 fold increase or percent reduction vs vehicle control” value (75 mg/kg BIDx1, 72 h)?
A: 1.12 fold or %

Q: And the “Mdm2 fold increase or percent reduction vs vehicle control” value (75 mg/kg BIDx1, 72 h)?
A: 2.80 fold or %

Q: What about the “Mdm4 fold increase or percent reduction vs vehicle control” value (75 mg/kg BIDx1, 72 h) of the same compound?
A: 14.78 fold or %

Q: What about the “Mel1 fold increase or percent reduction vs vehicle control” value (75 mg/kg BIDx1, 72 h) of the same compound?
A: 21.11 fold or %

Q: What about the “Mlh1 fold increase or percent reduction vs vehicle control” value (75 mg/kg BIDx1, 72 h) of the same compound?
A: 4.80 fold or %

Q: And the “Msh2 fold increase or percent reduction vs vehicle control” value (75 mg/kg BIDx1, 72 h)?
A: 16.07 fold or %

Q: What about the “Myod1 fold increase or percent reduction vs vehicle control” value (75 mg/kg BIDx1, 72 h) of the same compound?
A: 2.73 fold or %

Q: What about the “Nf1 fold increase or percent reduction vs vehicle control” value (75 mg/kg BIDx1, 72 h) of the same compound?
A: 21.43 fold or %

Q: And the “Nfkb1 fold increase or percent reduction vs vehicle control” value (75 mg/kg BIDx1, 72 h)?
A: 1.73 fold or %

Q: What about the “Pcna fold increase or percent reduction vs vehicle control” value (75 mg/kg BIDx1, 72 h) of the same compound?
A: 23.22 fold or %

Q: And the “Pmaip1 fold increase or percent reduction vs vehicle control” value (75 mg/kg BIDx1, 72 h)?
A: 1.03 fold or %

Q: And the “Ppm1d fold increase or percent reduction vs vehicle control” value (75 mg/kg BIDx1, 72 h)?
A: 5.34 fold or %

Q: What about the “Prc1 fold increase or percent reduction vs vehicle control” value (75 mg/kg BIDx1, 72 h) of the same compound?
A: 6.02 fold or %

Q: What about the “Prkca fold increase or percent reduction vs vehicle control” value (75 mg/kg BIDx1, 72 h) of the same compound?
A: 6.98 fold or %

Q: What about the “Pten fold increase or percent reduction vs vehicle control” value (75 mg/kg BIDx1, 72 h) of the same compound?
A: 3.49 fold or %

Q: What about the “Pttg1 fold increase or percent reduction vs vehicle control” value (75 mg/kg BIDx1, 72 h) of the same compound?
A: 1.03 fold or %

Q: What about the “Rb1 fold increase or percent reduction vs vehicle control” value (75 mg/kg BIDx1, 72 h) of the same compound?
A: 3.16 fold or %

Q: And the “Rela fold increase or percent reduction vs vehicle control” value (75 mg/kg BIDx1, 72 h)?
A: 4.69 fold or %

Q: What about the “Rprm fold increase or percent reduction vs vehicle control” value (75 mg/kg BIDx1, 72 h) of the same compound?
A: 1.34 fold or %

Q: What about the “Serpinb5 fold increase or percent reduction vs vehicle control” value (75 mg/kg BIDx1, 72 h) of the same compound?
A: 15.52 fold or %

Q: What about the “Sesn2 fold increase or percent reduction vs vehicle control” value (75 mg/kg BIDx1, 72 h) of the same compound?
A: 1.11 fold or %

Q: What about the “Sfn fold increase or percent reduction vs vehicle control” value (75 mg/kg BIDx1, 72 h) of the same compound?
A: 8.30 fold or %

Q: And the “Sirt1 fold increase or percent reduction vs vehicle control” value (75 mg/kg BIDx1, 72 h)?
A: 5.18 fold or %

Q: And the “Stat1 fold increase or percent reduction vs vehicle control” value (75 mg/kg BIDx1, 72 h)?
A: 1.58 fold or %

Q: And the “Tnf fold increase or percent reduction vs vehicle control” value (75 mg/kg BIDx1, 72 h)?
A: 1.28 fold or %

Q: What about the “Traf1 fold increase or percent reduction vs vehicle control” value (75 mg/kg BIDx1, 72 h) of the same compound?
A: 1.16 fold or %

Q: What about the “Trp53bp2 fold increase or percent reduction vs vehicle control” value (75 mg/kg BIDx1, 72 h) of the same compound?
A: 7.94 fold or %

Q: What about the “Trp53 fold increase or percent reduction vs vehicle control” value (75 mg/kg BIDx1, 72 h) of the same compound?
A: 1.11 fold or %

Q: What about the “Bbc3 mRNA increase” value (75 mg/kg BID×1, 24 h) of the same compound?
A: 1.80 fold

Q: And the “Birc5 mRNA decrease” value (75 mg/kg BID×1, 24 h)?
A: 45.92%

Q: What about the “Ccng1 mRNA increase” value (75 mg/kg BID×1, 24 h) of the same compound?
A: 4.63 fold

Q: What about the “Cdc25c mRNA decrease” value (75 mg/kg BID×1, 24 h) of the same compound?
A: 60.54%

Q: And the “Cdk1 mRNA decrease” value (75 mg/kg BID×1, 24 h)?
A: 59.92%

Q: And the “Cdkn1a mRNA increase” value (75 mg/kg BID×1, 24 h)?
A: 5.16 fold

Q: What about the “Chek1 mRNA decrease” value (75 mg/kg BID×1, 24 h) of the same compound?
A: 52.36%

Q: What about the “Egfr mRNA change” value (75 mg/kg BID×1, 24 h) of the same compound?
A: 28.18%

Q: And the “Il6 mRNA change” value (75 mg/kg BID×1, 24 h)?
A: 70.78%

Q: And the “Mdm2 mRNA increase” value (75 mg/kg BID×1, 24 h)?
A: 2.76 fold

Q: What about the “Sesn2 mRNA increase” value (75 mg/kg BID×1, 24 h) of the same compound?
A: 2.05 fold

Q: What about the “Zmat3 mRNA increase” value (75 mg/kg BID×1, 24 h) of the same compound?
A: 4.14 fold

Q: And the “Apex1 fold increase or percent reduction vs vehicle control” value (150 mg/kg BIDx1, 8 h)?
A: 27.35 fold or %

Q: What about the “Atm fold increase or percent reduction vs vehicle control” value (150 mg/kg BIDx1, 8 h) of the same compound?
A: 22.22 fold or %

Q: What about the “Atr fold increase or percent reduction vs vehicle control” value (150 mg/kg BIDx1, 8 h) of the same compound?
A: 27.07 fold or %

Q: What about the “Bag1 fold increase or percent reduction vs vehicle control” value (150 mg/kg BIDx1, 8 h) of the same compound?
A: 23.32 fold or %

Q: And the “Bax fold increase or percent reduction vs vehicle control” value (150 mg/kg BIDx1, 8 h)?
A: 1.68 fold or %

Q: And the “Bbc3 fold increase or percent reduction vs vehicle control” value (150 mg/kg BIDx1, 8 h)?
A: 1.97 fold or %

Q: What about the “Bcl2 fold increase or percent reduction vs vehicle control” value (150 mg/kg BIDx1, 8 h) of the same compound?
A: 28.71 fold or %

Q: What about the “Bid fold increase or percent reduction vs vehicle control” value (150 mg/kg BIDx1, 8 h) of the same compound?
A: 12.20 fold or %

Q: What about the “Birc5 fold increase or percent reduction vs vehicle control” value (150 mg/kg BIDx1, 8 h) of the same compound?
A: 26.07 fold or %

Q: What about the “Brca1 fold increase or percent reduction vs vehicle control” value (150 mg/kg BIDx1, 8 h) of the same compound?
A: 34.27 fold or %

Q: What about the “Brca2 fold increase or percent reduction vs vehicle control” value (150 mg/kg BIDx1, 8 h) of the same compound?
A: 36.90 fold or %

Q: What about the “Btg2 fold increase or percent reduction vs vehicle control” value (150 mg/kg BIDx1, 8 h) of the same compound?
A: 13.04 fold or %

Q: What about the “Casp2 fold increase or percent reduction vs vehicle control” value (150 mg/kg BIDx1, 8 h) of the same compound?
A: 34.08 fold or %

Q: And the “Ccnb1 fold increase or percent reduction vs vehicle control” value (150 mg/kg BIDx1, 8 h)?
A: 15.72 fold or %

Q: And the “Ccne1 fold increase or percent reduction vs vehicle control” value (150 mg/kg BIDx1, 8 h)?
A: 40.62 fold or %

Q: What about the “Ccng1 fold increase or percent reduction vs vehicle control” value (150 mg/kg BIDx1, 8 h) of the same compound?
A: 6.49 fold or %

Q: What about the “Ccnh fold increase or percent reduction vs vehicle control” value (150 mg/kg BIDx1, 8 h) of the same compound?
A: 29.12 fold or %

Q: And the “Cdc25a fold increase or percent reduction vs vehicle control” value (150 mg/kg BIDx1, 8 h)?
A: 34.26 fold or %

Q: And the “Cdk1 fold increase or percent reduction vs vehicle control” value (150 mg/kg BIDx1, 8 h)?
A: 39.81 fold or %

Q: What about the “Cdk4 fold increase or percent reduction vs vehicle control” value (150 mg/kg BIDx1, 8 h) of the same compound?
A: 47.61 fold or %

Q: What about the “Cdkn1a fold increase or percent reduction vs vehicle control” value (150 mg/kg BIDx1, 8 h) of the same compound?
A: 8.66 fold or %

Q: And the “Cdkn2a fold increase or percent reduction vs vehicle control” value (150 mg/kg BIDx1, 8 h)?
A: 42.49 fold or %

Q: What about the “Chek1 fold increase or percent reduction vs vehicle control” value (150 mg/kg BIDx1, 8 h) of the same compound?
A: 41.91 fold or %

Q: And the “Cradd fold increase or percent reduction vs vehicle control” value (150 mg/kg BIDx1, 8 h)?
A: 36.95 fold or %

Q: What about the “Cul9 fold increase or percent reduction vs vehicle control” value (150 mg/kg BIDx1, 8 h) of the same compound?
A: 26.00 fold or %

Q: And the “Dapk1 fold increase or percent reduction vs vehicle control” value (150 mg/kg BIDx1, 8 h)?
A: 2.02 fold or %

Q: What about the “Dnmt1 fold increase or percent reduction vs vehicle control” value (150 mg/kg BIDx1, 8 h) of the same compound?
A: 17.37 fold or %

Q: And the “E2f1 fold increase or percent reduction vs vehicle control” value (150 mg/kg BIDx1, 8 h)?
A: 27.89 fold or %

Q: And the “E2f3 fold increase or percent reduction vs vehicle control” value (150 mg/kg BIDx1, 8 h)?
A: 27.45 fold or %

Q: What about the “Egfr fold increase or percent reduction vs vehicle control” value (150 mg/kg BIDx1, 8 h) of the same compound?
A: 39.84 fold or %

Q: What about the “Egr1 fold increase or percent reduction vs vehicle control” value (150 mg/kg BIDx1, 8 h) of the same compound?
A: 53.86 fold or %

Q: And the “Ep300 fold increase or percent reduction vs vehicle control” value (150 mg/kg BIDx1, 8 h)?
A: 11.02 fold or %

Q: What about the “Ercc1 fold increase or percent reduction vs vehicle control” value (150 mg/kg BIDx1, 8 h) of the same compound?
A: 16.08 fold or %

Q: And the “Esr1 fold increase or percent reduction vs vehicle control” value (150 mg/kg BIDx1, 8 h)?
A: 14.42 fold or %

Q: What about the “Fadd fold increase or percent reduction vs vehicle control” value (150 mg/kg BIDx1, 8 h) of the same compound?
A: 31.64 fold or %

Q: What about the “Fas fold increase or percent reduction vs vehicle control” value (150 mg/kg BIDx1, 8 h) of the same compound?
A: 2.12 fold or %

Q: What about the “Fasl fold increase or percent reduction vs vehicle control” value (150 mg/kg BIDx1, 8 h) of the same compound?
A: 3.98 fold or %

Q: What about the “Foxo3 fold increase or percent reduction vs vehicle control” value (150 mg/kg BIDx1, 8 h) of the same compound?
A: 1.15 fold or %

Q: What about the “Gadd45a fold increase or percent reduction vs vehicle control” value (150 mg/kg BIDx1, 8 h) of the same compound?
A: 23.94 fold or %

Q: And the “Hif1a fold increase or percent reduction vs vehicle control” value (150 mg/kg BIDx1, 8 h)?
A: 1.07 fold or %
